{
  "source": "paper PMC9732823",
  "about": "“Discovery of Dual Aβ/Tau Inhibitors and Evaluation of Their Therapeutic Effect on a Drosophila Model of Alzheimer’s Disease” (ACS Chemical Neuroscience, 2022)",
  "key": {"Aβ42": {"target": "T1, Aβ42 (Homo sapiens, UniProt P05067)", "T1 construct": "expressed in transfected cells; host or cells: Escherichia coli BL21 (DE3), pET28a", "T1 sequence (P05067 672-713 limits assumed)": "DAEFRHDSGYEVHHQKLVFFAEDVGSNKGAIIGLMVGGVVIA", "assay": "Inhibition of Aβ42 aggregation in intact E. coli cells overexpressing Aβ42 (ThS fluorescence)", "type": "cell-based, Escherichia coli", "outline": "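E. coli BL21(DE3) expressing Met-Aβ42 grown in M9 with 250 μM ThS, induced with IPTG at OD600 0.6 alongside 10 μM compound, then overnight at 37 °C. ThS emission at 485 nm (ex 440 nm) normalised to OD600. 100% = induced cells without drug, 0% = non-induced cells.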"}, "[1]": {"tested_on": "Arctic Aβ42 Drosophila flies", "assay": "Lifespan analysis in Arctic Aβ42 Drosophila flies", "settings": "20 μM in fly food; days 5, 10, 20 post-eclosion", "description": "As longevity is a phenotype that can be rapidly measured in this in vivo AD model, we first assessed changes in Drosophila’s lifespan with and without treatment with 22 and 23 (20 μM). […] Doxycycline was tested at 50 μM, a concentration used in similar previous experiments.[59]\nThe transactivating protein GAL4 is placed under the control of a specific promoter, with its own spatial and temporal patterns, in this case, Elav, whereas the upstream activation sequence (UAS) localized upstream, the locus controlled by the UAS-Gal4; in our study, UAS expresses construct for the E22G variant of Aβ42 (Arctic Aβ42) (AlzArc2).[56],[64] Around 150 flies (half female/male) for each compound tested were collected and divided into groups of 25 flies. At the top of the media, 25 μL of doxycycline (50 μM), 22 (20 μM), or 23 (20 μM) were added fresh anytime the flies were flipped.\nBriefly, males and females 25 per vial were kept at 25 °C."}, "[2]": {"assay": "Solubility in the in vitro aggregation assay conditions", "settings": "dedicated solubility assays", "description": "* The results are the mean of at least two independent measurements each performed in duplicate.\n1 Compounds were measured at 50 μM.\nNS = not soluble in the assay conditions"}, "Tau protein": {"target": "T2, Tau protein (Homo sapiens, UniProt P10636)", "T2 construct": "expressed in transfected cells; host or cells: Escherichia coli BL21 (DE3) with pTARA and pRKT42", "T2 sequence (P10636 1-441 isoform P10636-8)": "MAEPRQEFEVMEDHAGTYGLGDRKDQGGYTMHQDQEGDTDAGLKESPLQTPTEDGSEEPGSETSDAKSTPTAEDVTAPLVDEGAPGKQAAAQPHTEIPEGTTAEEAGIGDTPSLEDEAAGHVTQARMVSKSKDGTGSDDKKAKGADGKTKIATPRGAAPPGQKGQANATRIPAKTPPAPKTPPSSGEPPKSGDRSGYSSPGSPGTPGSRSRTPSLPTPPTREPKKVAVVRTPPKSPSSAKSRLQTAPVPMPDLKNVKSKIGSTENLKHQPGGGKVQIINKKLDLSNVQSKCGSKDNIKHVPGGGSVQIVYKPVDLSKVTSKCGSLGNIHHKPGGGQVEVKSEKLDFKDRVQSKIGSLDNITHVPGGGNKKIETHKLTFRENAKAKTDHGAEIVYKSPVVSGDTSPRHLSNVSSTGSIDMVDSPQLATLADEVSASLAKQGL", "assay": "Inhibition of Tau aggregation in intact E. coli cells overexpressing Tau (ThS fluorescence)", "type": "cell-based, Escherichia coli", "outline": "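E. coli BL21(DE3) expressing four-repeat Tau, arabinose-induced in M9 with 25 μM ThS, grown overnight at 37 °C with compound at 10 μM final. ThS emission at 485 nm (excitation 440 nm) normalized to ABS600; 100% = induced DMSO control, 0% = noninduced cells.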"}, "[3]": {"settings": "intact E. coli cells, compound 10 μM, mean ± SEM of four independent experiments, 10 µM"}},
  "data": [
    {"smiles": "CN(C)CCN1C(=O)S/C(=C\\c2ccc3c(c2)C(C)(C)c2cc(/C=C4\\SC(=O)N(CCN(C)C)C4=O)ccc2-3)C1=O", "note": "[Compound 23, (5Z,5′Z)-5,5′-((9,9-Dimethyl-9H-fluorene-2,7-diyl)bis(methanylylidene))bis(3-(2-(dimethylamino)ethyl)thiazolidine-2,4-dione)]", "values": [
      {"measurement": "% inhibition Aβ42 aggregation @ 10 μM", "setting": "Aβ42; [3]", "value": "44.8 ± 4.7", "unit": "%"},
      {"measurement": "inhibition at 10 µM", "setting": "Aβ42; read-out: % inhibition Aβ42 aggregation @ 10 μM, intact E. coli cells, compound 10 μM, mean ± SEM of four independent experiments", "value": "> 40", "unit": "%"},
      {"measurement": "lifespan of Aβ42 Drosophila flies", "setting": "[1]", "value": "increase in longevity"},
      {"measurement": "solubility in Aβ42 ThT-based assay condition", "setting": "[2]", "value": "too limited to grant trustable results"},
      {"measurement": "% inhibition Tau aggregation @ 10 μM", "setting": "Tau protein; [3]", "value": "41.9 ± 3.9", "unit": "%"},
      {"measurement": "inhibition at 10 µM", "setting": "Tau protein; read-out: % inhibition Tau aggregation @ 10 μM, intact E. coli cells, compound 10 μM, mean ± SEM of four independent experiments", "value": "> 40", "unit": "%"}
    ]}
  ]
}
